Test results taken from patent EP4692089A1, “NITROGEN-CONTAINING HETEROCYCLIC COMPOUND AS AAK1 INHIBITOR” (Alicorn Pharmaceutical Co., Ltd., priority 2023, dated 2024).
Where a name gives a salt, the structure may show the parent alone.

Legend:
AAK1 (30-330) protein [1] = target: T1, AAK1 (30-330) protein (Homo sapiens, UniProt Q2M2I8); experiment: CETSA test of binding ability to AAK1 protein (Western blot)
T1 construct: (His)6x (N); TEV protease cleavage site (N); made in house; host or cells: Escherichia coli BL21(DE3)
T1 sequence (Q2M2I8 30-330): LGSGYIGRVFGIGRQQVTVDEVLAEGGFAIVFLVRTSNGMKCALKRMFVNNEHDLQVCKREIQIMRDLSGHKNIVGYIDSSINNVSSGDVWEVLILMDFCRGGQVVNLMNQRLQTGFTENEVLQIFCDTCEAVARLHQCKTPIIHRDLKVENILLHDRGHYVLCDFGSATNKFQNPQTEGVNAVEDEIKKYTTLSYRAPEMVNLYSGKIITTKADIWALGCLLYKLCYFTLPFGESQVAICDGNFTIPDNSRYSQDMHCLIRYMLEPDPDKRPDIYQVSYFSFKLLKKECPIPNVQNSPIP
Protocol: Experimental objective: To detect the binding ability of compounds to AAK1 protein by means of a CETSA experiment.
Background principle: The CETSA experiment is a molecular detection means for measuring the affinity between drugs and target proteins. […] When a candidate drug is co-incubated with a target protein, if the candidate drug is an inhibitor of AAK1, it can bind to AAK1. […] On the contrary, the stability of the AAK1 protein after heating will be poorer, and the amount of the detected protein will be lower. In this way, the binding ability of the drug to the target protein can be evaluated, which is used for the screening of AAK1 protein inhibitors.
(§1) Expression of AAK1 (30-330) protein: The AAK1 sequence (residues 30-330) was cloned into the pET24N vector with an N-terminal (His)6x tag and a tobacco etch virus (TEV) protease cleavage site. The constructed vector was transformed into Escherichia coli BL21(DE3). When the bacteria were cultured with shaking to reach an OD value of 0.6, 1 mM IPTG was added. […] The bacterial cells were collected and subjected to ultrasonic disruption. The supernatant was obtained by centrifugation, and the protein was purified using Ni-NTA. After dialysis, the concentration and purity of the protein were determined.
CETSA sample preparation: Samples were incubated with candidate drugs, control drugs, and control reagents separately for 30 minutes. Each group of samples was heated at approximately 10 pre-set temperature points. After being returned to room temperature, the samples were centrifuged at 20000 g, and the supernatants were collected. Protein samples were denatured by heating at 100°C for 10 minutes with a sample buffer. After the samples were returned to room temperature, Western blot detection was performed on them; the protein loading amount was controlled at 20 µg. […] The same operations were followed, and Western blot detection was conducted. Protein electrophoresis: The voltage for the stacking gel was set at 60 V, and that for the separating gel was set at 120 V. After electrophoresis, electrotransfer was initiated. Electrotransfer conditions were set at 250 mA for 2 h. Blocking with 5% BSA was performed for 1 h. A specific primary antibody was added, and incubation was carried out overnight at 4°C on a shaker. Washing with TBST was conducted 4 times, with 2.5 minutes each time. A secondary antibody was incubated on a shaker at room temperature for 1 h. Washing with TBST was conducted 4 times, with 2.5 minutes each time. ECL was used for development to detect the expression levels of AAK1 protein in different groups and at each temperature point. Western blot bands were processed and converted using Image J and GraphPad software to calculate EC50.

AAK1 (30-330) protein [2] = target: T1, AAK1 (30-330) protein; experiment: AAK1 kinase assay (ADP generated, detected by HPLC); format: biochemical; conditions: 3.5 nM AAK1, 22 µM ATP, 25°C, 3 h
Excerpt: Experimental objective: The objective of this test example is to test the effect of compounds on AAK1 kinase function.
Background principle: AAK1 phosphorylates the threonine residue in the micro-subunit of AP2 (AP2M1). In this process, ATP provides phosphate groups to generate ADP. Therefore, the activity of AAK1 kinase can be evaluated by detecting the amount of ADP generated.
as §1
The reaction mixture was incubated in a metal bath at 25°C for 3 h. The reaction was terminated by adding 1% SDS, and the amount of ADP generated was detected by HPLC. IC50 values were calculated using GraphPad software.

AAK1 = target: T2, AAK1 (Homo sapiens, UniProt Q2M2I8); experiment: Effect on AP2M1 phosphorylation in 293T cells co-transfected with AAK1 and AP2M1 (Western blot, anti-p-AP2M1); format: cell-based; conditions: p-AP2M1 level, incubated 3 h
T2 construct: HA; expressed in transfected cells; host or cells: 293T cells
T2 sequence (Q2M2I8 whole entry): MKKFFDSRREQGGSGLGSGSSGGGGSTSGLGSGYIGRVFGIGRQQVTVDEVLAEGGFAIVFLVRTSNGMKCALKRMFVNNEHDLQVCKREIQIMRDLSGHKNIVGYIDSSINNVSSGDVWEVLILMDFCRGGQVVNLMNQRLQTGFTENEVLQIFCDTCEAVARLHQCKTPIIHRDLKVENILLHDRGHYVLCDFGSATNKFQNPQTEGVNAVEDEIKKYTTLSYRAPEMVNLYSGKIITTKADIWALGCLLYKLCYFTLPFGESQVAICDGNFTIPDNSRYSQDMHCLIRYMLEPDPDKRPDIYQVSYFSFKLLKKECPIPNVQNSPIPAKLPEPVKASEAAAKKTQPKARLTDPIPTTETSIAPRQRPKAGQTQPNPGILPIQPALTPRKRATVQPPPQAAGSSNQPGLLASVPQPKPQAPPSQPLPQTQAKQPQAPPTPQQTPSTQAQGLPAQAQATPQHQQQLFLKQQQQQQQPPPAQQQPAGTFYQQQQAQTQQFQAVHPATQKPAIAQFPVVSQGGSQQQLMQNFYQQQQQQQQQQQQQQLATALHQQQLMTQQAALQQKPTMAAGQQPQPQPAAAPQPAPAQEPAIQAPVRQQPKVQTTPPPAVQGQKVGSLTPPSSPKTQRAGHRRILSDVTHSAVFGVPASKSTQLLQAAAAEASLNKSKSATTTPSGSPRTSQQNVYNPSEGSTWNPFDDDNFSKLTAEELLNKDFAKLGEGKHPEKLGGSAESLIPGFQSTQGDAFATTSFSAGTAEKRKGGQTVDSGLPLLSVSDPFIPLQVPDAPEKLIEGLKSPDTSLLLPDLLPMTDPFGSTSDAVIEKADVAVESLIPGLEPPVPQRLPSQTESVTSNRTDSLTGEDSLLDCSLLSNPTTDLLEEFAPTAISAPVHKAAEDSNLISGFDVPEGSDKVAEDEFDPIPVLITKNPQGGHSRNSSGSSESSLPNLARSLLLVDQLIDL
Excerpt: Experimental objective: The objective of this test example is to determine the effect of compounds on AP2M1 phosphorylation in cells.
Background principle: Adaptor-associated kinase 1 (AAK1), also known as AP2-associated kinase 1, is a 104 kDa serine/threonine kinase. AAK1 interacts with the adaptor protein 2 (AP2) complex and phosphorylates the threonine residue in the micro-subunit of AP2 (AP2M1), thereby increasing its binding affinity for certain tyrosine-based or dileucine-based sorting signals of some membrane receptors. The inhibitory effect of compounds on AAK1 was evaluated by detecting the phosphorylation level of AP2M1 in cells, so as to screen candidate compounds.
On the second day, each T25 flask was co-transfected with 16 µg of plasmids (1 µg of AAK1/HA/pIRES and 15 µg of Flag/AP2MI/pcDNA) using a Lip2000 transfection reagent. On the third day, the cells were digested and resuspended, centrifuged at 1000 rpm for 5 minutes, and then seeded into 24-well plates at 450 µl per well (2 × 10^5 cells/well). Gradient dilutions of the compounds to be tested were prepared, 50 µl was added to each well, mixed thoroughly, and incubated at 37°C for 3 h. DMSO was set as a control, and cells without plasmid transfection were set as a blank control. After incubation, the cells were collected and washed twice with PBS. The cells were lysed on ice for 30 minutes using a cell lysis buffer containing the protease inhibitor PMSF. The concentration of protein samples was determined using a BCA kit. Protein electrophoresis: The voltage for the stacking gel was set at 60 V, and that for the separating gel was set at 120 V. After electrophoresis, electrotransfer was initiated. Electrotransfer conditions were set at 250 mA for 2 h. Blocking with 5% BSA was performed for 1 h. A specific primary antibody, anti-p-AP2M1, was added, and incubation was carried out overnight at 4°C on a shaker. Washing with TBST was conducted 4 times, with 2.5 minutes each time. A secondary antibody was incubated on a shaker at room temperature for 1 h. Washing with TBST was conducted 4 times, with 2.5 minutes each time. ECL was used for development to detect the expression level of p-AP2M1. Western blot bands were processed and converted using Image J and GraphPad software to calculate IC50.
IC50 (half maximal inhibitory concentration) refers to the half-inhibitory concentration of the measured antagonist. It can indicate the concentration of a certain drug or substance (inhibitor) that achieves half of the inhibition effect on certain biological processes (or certain substances involved in these processes, such as enzymes, cellular receptors, or microorganisms).

| Compound | EC50 (AAK1 (30-330) protein [1]) [µM] | IC50 (AAK1 (30-330) protein [2]) [µM] | IC50 (AAK1) [µM] |
| --- | --- | --- | --- |
| CC(C)C[C@](C)(N)COc1ncc(-c2c[nH]c3ncc(C(F)F)cc23)c(C(F)(F)F)n1 [Compound 39] | 0.01 to 0.1 | 0.101 | 0.01 to 0.1 |
| CC(C)C[C@](C)(N)COc1ccc(-c2ccnc3c(F)cnn23)nc1C(F)F [Compound 18] | 0.01 to 0.1 | 0.0425 | 0.01 to 0.1 |
| CC(C)C[C@](C)(N)COc1ccc(-c2cncc3[nH]c(C(F)(F)F)nc23)nc1C(F)F [Compound 12] | 0.01 to 0.1 | 0.0992 | 0.01 to 0.1 |
| Cc1nc2ccnn2c(-c2ccc(OC[C@](C)(N)CC(C)C)c(C(F)F)n2)c1F [Compound 21] | 0.1 to 1 | 0.19 | 0.01 to 0.1 |
| CC(C)C[C@@](C)(N)COc1ccc(-c2ccnc3ccnn23)nc1C(F)F [Compound 1, (R)-1-{[2-(difluoromethyl)-6-(pyrazolo[1,5-a]pyrimidin-7-yl)pyridin-3-yl]oxy}-2,4-dimet hylpentan-2-amine] | 0.01 to 0.1 | 0.0321 | 0.01 to 0.1 |
| CC(C)C[C@@](C)(N)COc1ccc(-c2cncc3[nH]c(C(F)(F)F)nc23)nc1C(F)F [Compound 13] | 0.01 to 0.1 | 0.168 | 0.01 to 0.1 |
| CC(C)C[C@@](C)(N)COc1ccc(-c2ccnc3c2nc(C(F)(F)F)n3C)nc1C(F)F [Compound 11] | 0.01 to 0.1 | 0.123 | 0.01 to 0.1 |
| CC(C)C[C@](C)(N)COc1ccc(-c2ccnc3c2nc(C(F)(F)F)n3C)nc1C(F)F [Compound 10] | 0.01 to 0.1 | 0.152 | 0.01 to 0.1 |
| CC(C)C[C@](C)(N)COc1ccc(-c2c[nH]c3ncc(C(F)F)cc23)cc1C(F)(F)F [Compound 33] | 0.01 to 0.1 | 0.0695 | 0.01 to 0.1 |
| CC(C)C[C@@](C)(N)COc1ccc(-c2ccnc3c(F)cnn23)nc1C(F)F [Compound 19] | 0.01 to 0.1 | 0.0873 | 0.01 to 0.1 |
| CC(C)C[C@@](C)(N)COc1ccc(-c2ccnc3[nH]cnc23)nc1C(F)F [Compound 7] | 0.1 to 1 | 0.101 | 0.01 to 0.1 |
| CC(C)C[C@](C)(N)COc1ccc(-c2ccnc3c(C(=O)O)cnn23)nc1C1CC1 [Compound 22] | 0.1 to 1 | 0.17 | 0.01 to 0.1 |
| CC(C)C[C@](C)(N)COc1ccc(-c2ccnc3[nH]cnc23)nc1C(F)F [Compound 6] | 0.01 to 0.1 | 0.0752 | 0.01 to 0.1 |
| CC(C)C[C@](C)(N)COc1ccc(-c2cn(C)c3ncc(F)cc23)nc1C(F)F [Compound 43, (S)-1-{[2-(difluoromethyl)-6-(5-fluoro-1-methyl-1H-pyrrolo[2,3-b]pyridin-3-yl)pyridin-3-yl]oxy}-2,4-dimethylpentan-2-amine] | < 0.01 | 0.0121 | < 0.01 |
| CC(C)C[C@@](C)(N)COc1ccc(-c2ccnc3[nH]c(C(F)(F)F)nc23)nc1C(F)F [Compound 9] | 0.01 to 0.1 | 0.0992 | 0.01 to 0.1 |
| CC(C)C[C@](C)(N)COc1ccc(-c2ccnc3[nH]c(C(F)(F)F)nc23)nc1C(F)F [Compound 8] | 0.01 to 0.1 | 0.129 | 0.01 to 0.1 |

Now from value to compound:

| EC50 (AAK1 (30-330) protein [1]) [µM] | IC50 (AAK1 (30-330) protein [2]) [µM] | IC50 (AAK1) [µM] | Compound |
| --- | --- | --- | --- |
| < 0.01 | 0.0065 | < 0.01 | Cc1cnc2[nH]cc(-c3ccc(OC[C@@](C)(N)CC(C)C)c(C(F)F)n3)c2c1 [Compound 45, (S)-1-{[2-(difluoromethyl)-6-(5-methyl-1H-pyrrolo[2,3-b]pyridin-3-yl)pyridin-3-yl]oxy}-2,4-dimethylpentan-2-amine diformate] |
| 0.01 to 0.1 | 0.0459 | 0.01 to 0.1 | CC(C)C[C@](C)(N)COc1ccc(-c2c[nH]c3nc(C(F)(F)F)ccc23)nc1C(F)F [Compound 4] |
| 0.01 to 0.1 | 0.0861 | 0.01 to 0.1 | CC(C)C[C@@](C)(N)COc1ccc(-c2c[nH]c3nc(C(F)(F)F)ccc23)nc1C(F)F [Compound 5] |
| 0.01 to 0.1 | 0.0212 | 0.01 to 0.1 | CC(C)C[C@](C)(N)COc1ccc(-c2c[nH]c3ncccc23)nc1C(F)F [Compound 3] |
| 0.01 to 0.1 | 0.102 | 0.01 to 0.1 | CC(C)C[C@](C)(N)COc1ccc(-c2c[nH]c3nc(F)ccc23)nc1C(F)F [Compound 14] |
| < 0.01 | 0.0082 | < 0.01 | CC(C)C[C@](C)(N)COc1ccc(-c2c[nH]c3ncc(Cl)cc23)nc1C(F)F [Compound 44, (S)-1-{[6-(5-chloro-1H-pyrrolo[2,3-b]pyridin-3-yl)-2-(difluoromethyl)pyridin-3-yl]oxy}-2,4-dimethylpentan-2-amine] |
| 0.01 to 0.1 | 0.0578 | 0.1 to 1 | CC(C)C[C@](C)(N)COc1ccc(-c2c[nH]c3ncc(C#N)cc23)nc1C(F)F [Compound 27] |
| 0.01 to 0.1 | 0.0283 | 0.01 to 0.1 | CC(C)C[C@@](C)(N)COc1ccc(-c2c[nH]c3ncccc23)nc1C(F)F [Compound 2, (R)-1-{[2-(difluoromethyl)-6-(1H-pyrrolo[2,3-b]pyridin-3-yl)pyridin-3-yl]oxy}-2,4-dimet hylpentan-2-amine] |
| 0.01 to 0.1 | 0.0653 | 0.01 to 0.1 | CC(C)C[C@](C)(N)COc1ccc(-c2c[nH]c3ncc(C(F)F)cc23)nc1C(F)F [Compound 28, (S)-1-{[2-(difluoromethyl)-6-[5-(difluoromethyl)-1H-pyrrolo[2,3-b]pyridin-3-yl]pyridin-3-yl]oxy}-2,4-dimethylpentan-2-amine formate] |
| 0.01 to 0.1 | 0.0872 | 0.01 to 0.1 | COc1ccnc2[nH]cc(-c3ccc(OC[C@@](C)(N)CC(C)C)c(C(F)F)n3)c12 [Compound 16, (S)-1-{[2-(difluoromethyl)-6-(4-methoxy-1H-pyrrolo[2,3-b]pyridin-3-yl)pyridin-3-yl]oxy}-2,4-dimethylpentan-2-amine tris(trifluoroacetate)] |
| 0.01 to 0.1 | 0.111 | 0.01 to 0.1 | CC(C)C[C@@](C)(N)COc1ccc(-c2c[nH]c3nc(F)ccc23)nc1C(F)F [Compound 15] |
